Data as given in patent US7141533B2, “Hetaryl-substituted heterocycles” (Bayer CropScience AG, priority 2000, dated 2006).

Assays:
[1] = test system: larvae of the mustard beetle (Phaedon cochleariae); assay: Phaedon larvae test; format: in vivo; conditions: cabbage leaves dipped
Experimental: (§1) [table] To produce a suitable preparation of active compound, 1 part by weight of active compound is mixed with the stated amounts of solvent and emulsifier, and the concentrate is diluted with emulsifier-containing water to the desired concentration. Cabbage leaves (Brassica oleracea) are treated by being dipped into the preparation of active compound of the desired concentration and are populated with the larvae of the mustard beetle (Phaedon cochleariae) while the leaves are still moist. After the desired period of time, the kill in % is determined. 100% means that all beetle larvae have been killed; 0% means that none of the beetle larvae have been killed.

Stellaria = assay: Post-emergence test; format: in vivo; conditions: 250 g ai/ha, after three weeks
Experimental: (§2) [table] To produce a suitable preparation of active compound, 1 part by weight of active compound is mixed with the stated amount of solvent, the stated amount of emulsifier is added and the concentrate is diluted with water to the desired concentration. Test plants of a height of 5 to 15 cm are sprayed with the preparation of active compound such that the particular amounts of active compound desired are applied per unit area. The concentration of the spray liquor is chosen such that the particular amounts of active compound desired are applied in 1000 1 of water/ha. After three weeks, the degree of damage to the plants is rated in % damage in comparison to the development of the untreated control. [table]

rice = assay: Post-emergence test; format: in vivo; conditions: 250 g ai/ha, after three weeks
Experimental: as §2

Echinochloa = assay: Post-emergence test; format: in vivo; conditions: after three weeks
Experimental: as §2

Avena fatua [2] = assay: Post-emergence test; format: in vivo; conditions: after three weeks
Experimental: as §2

Digitaria = assay: Post-emergence test; format: in vivo; conditions: after three weeks
Experimental: as §2

[3] = test system: greenhouse red spider mite (Tetranychus urticae); assay: Tetranychus test (OP-resistant/dip treatment); format: in vivo; conditions: bean plants dipped, OP-resistant
Experimental: [table] To produce a suitable preparation of active compound, 1 part by weight of active compound is mixed with the stated amounts of solvent and emulsifier, and the concentrate is diluted with emulsifier-containing water to the desired concentration. Bean plants (Phaseolus vulgaris) which are heavily infested by all stages of the greenhouse red spider mite (Tetranychus urticae) are dipped into a preparation of active compound of the desired concentration. After the desired period of time, the effect in % is determined. 100% means that all spider mites have been killed. 0% means that none of the spider mites have been killed.

[4] = test system: caterpillars of the army worm (Spodoptera frugiperda); assay: Spodoptera frugiperda test; format: in vivo; conditions: cabbage leaves dipped
Experimental: as §1, with “caterpillars” for “the larvae”, “army worm (Spodoptera frugiperda)” for “mustard beetle (Phaedon cochleariae)”, “caterpillars” for “beetle larvae”

Abutilon = assay: Post-emergence test; format: in vivo; conditions: 250 g ai/ha, after three weeks
Experimental: as §2

Setaria [5] = assay: Post-emergence test; format: in vivo; conditions: 250 g ai/ha, after three weeks
Experimental: as §2

Alopecurus [6] = assay: Post-emergence test; format: in vivo; conditions: after three weeks
Experimental: as §2

Amaranthus = assay: Post-emergence test; format: in vivo; conditions: 250 g ai/ha, after three weeks
Experimental: as §2

[7] = test system: peach aphid (Myzus persicae); assay: Myzus test; format: in vivo; conditions: cabbage leaves dipped
Experimental: as §1, with “oleracea) which are heavily infested by the peach aphid (Myzus persicae)” for “oleracea)”, “concentration.” for “concentration and are populated with the larvae of the mustard beetle (Phaedon cochleariae) while the leaves are still moist.”, “aphids” for “beetle larvae”

Sinapis = assay: Post-emergence test; format: in vivo; conditions: 250 g ai/ha, after three weeks
Experimental: as §2

sugar beet [8] = assay: Post-emergence test; format: in vivo; conditions: after three weeks
Experimental: as §2

Meloidogyne incognita = assay: Meloidogyne test; format: in vivo; conditions: Meloidogyne incognita egg/larvae on lettuce in sand
Experimental: [table] To produce a suitable preparation of active compound, 1 part by weight of active compound is mixed with the stated amounts of solvent and emulsifier, and the concentrate is diluted with water to the desired concentration. Containers are filled with sand, solution of active compound, Meloidogyne incognita egg/larvae suspension and lettuce seeds. The lettuce seeds germinate and the plants develop. On the roots, galls are formed. After the desired period of time, the nematicidal action in % is determined using the formation of galls as a measure. 100% means that no galls have been found; 0% means that the number of galls on the treated plants corresponds to that on the untreated control.

Matricaria = assay: Pre-emergence test; format: in vivo; conditions: 125 g ai/ha, after three weeks
Experimental: (§3) [table] To produce a suitable preparation of active compound, 1 part by weight of active compound is mixed with the stated amount of solvent, the stated amount of emulsifier is added and the concentrate is diluted with water to the desired concentration. Seeds of the test plants are sown in normal soil. After about 24 hours, the soil is sprayed with the preparation of active compound such that the particular amounts of active compound desired are applied per unit area. The concentration of the spray liquor is chosen such that the particular amounts of active compound desired are applied in 1000 1 of water/ha. After three weeks, the degree of damage to the plants is rated in % damage in comparison to the development of the untreated control. [table]

Lolium = assay: Pre-emergence test; format: in vivo; conditions: after three weeks
Experimental: as §3

sugar beet [9] = assay: Pre-emergence test; format: in vivo; conditions: after three weeks
Experimental: as §3

oilseed rape [10] = assay: Pre-emergence test; format: in vivo; conditions: after three weeks
Experimental: as §3

Setaria [11] = assay: Pre-emergence test; format: in vivo; conditions: after three weeks
Experimental: as §3

Alopecurus [12] = assay: Pre-emergence test; format: in vivo; conditions: 125 g ai/ha, after three weeks
Experimental: as §3

Avena fatua [13] = assay: Pre-emergence test; format: in vivo; conditions: after three weeks
Experimental: as §3

oilseed rape [14] = assay: Post-emergence test; format: in vivo; conditions: 250 g ai/ha, after three weeks
Experimental: as §2

Chenopodium = assay: Post-emergence test; format: in vivo; conditions: 250 g ai/ha, after three weeks
Experimental: as §2

Bromus = assay: Pre-emergence test; format: in vivo; conditions: 250 g ai/ha, after three weeks
Experimental: as §3

Soya bean = assay: Post-emergence test; format: in vivo; conditions: 250 g ai/ha, after three weeks
Experimental: as §2

[15] = logP (HPLC; acetonitrile); format: physicochemical; conditions: for logP (pH2): pH 2
Description: Yield: 2.4 g ( ? 41.62% of theory), logP (acidic) 4.54 (HPLC; acetonitrile).

| Structure (SMILES) | kill of beetle larvae [1] | % damage Echinochloa (Echinochloa; 250 g ai/ha) | % damage Avena fatua (Avena fatua [2]; 250 g ai/ha) | kill of caterpillars [4] | % damage Setaria (Setaria [5]) | % damage Alopecurus (Alopecurus [6]; 250 g ai/ha) | % damage Amaranthus (Amaranthus) | further results |
| --- | --- | --- | --- | --- | --- | --- | --- | --- |
| COC1CCC2(CC1)NC(=O)C(c1nc(-c3ccc(Cl)cc3)sc1C)=C2O (single isomer, unassigned) [Example I-1-A-a-3] | good activity | 100% | 100% |  |  |  |  | % damage Stellaria (Stellaria): 90%; % damage rice (rice): 10%; % damage Digitaria (Digitaria; 250 g ai/ha): 100% |
| CCOC1CCC2(CC1)NC(=O)C(c1nc(-c3ccc(Cl)cc3)sc1C)=C2O (single isomer, unassigned) [Example I-1-A-a-4] | good activity | 100% | 100% | good activity | 100% | 95% | 95% | effect on spider mites [3]: good activity; % damage Abutilon (Abutilon): 80% |
| COC1CCC2(CC1)NC(=O)C(c1nc(-c3ccc(C)cc3)sc1C)=C2O (single isomer, unassigned) [Example I-1-A-a-8] | good activity |  |  |  |  |  |  | kill of aphids [7]: good activity |
| Cc1sc(-c2ccc(Cl)cc2)nc1C1=C(O)C2(CCC(C)CC2)NC1=O (stereo not shown) [Example I-1-A-a-1] | good activity | 95% | 80% | good activity |  | 80% | 70% | % damage Sinapis (Sinapis): 80% |
| Cc1sc(-c2ccc(Cl)cc2)nc1C1=C(O)C(C)(C)NC1=O [Example I-1-A-a-2] | good activity | 90% |  | good activity | 95% | 70% | 90% |  |
| Cc1sc(-c2ccc(Cl)cc2)nc1C1=C(O)C2(CCOCC2)NC1=O [Example I-1-A-a-5] | good activity | 100% |  | good activity |  | 80% | 90% | effect on spider mites [3]: good activity; kill of aphids [7]: good activity |
| Cc1sc(-c2ccc(Cl)cc2)nc1C1=C(O)C2(CCCOC2)NC1=O (stereo not shown) [Example I-1-A-a-6] | good activity |  |  | good activity |  |  |  | effect on spider mites [3]: good activity; % damage sugar beet (sugar beet [8]; 125 g ai/ha): 0%; % damage Alopecurus (Alopecurus [6]; 125 g ai/ha): 90%; % damage Echinochloa (Echinochloa; 125 g ai/ha): 90%; % damage Avena fatua (Avena fatua [2]; 125 g ai/ha): 90%; % damage Digitaria (Digitaria; 125 g ai/ha): 95%; kill of aphids [7]: good activity |
| COC1CCC2(CC1)NC(=O)C(c1nc(-c3ccc(Cl)cc3)sc1C)=C2OC(=O)C(C)C (stereo not shown) [Example I-1-A-b-1] |  | 100% | 100% |  | 100% | 95% | 80% | % damage Abutilon (Abutilon): 80% |
| CCOC(=O)OC1=C(c2nc(-c3ccc(Cl)cc3)sc2C)C(=O)NC12CCC(OC)CC2 (stereo not shown) [Example I-1-A-c-1] | good activity | 95% | 95% | good activity | 90% | 80% |  |  |
| COC1CCC2(CC1)OC(=O)C(c1nc(-c3ccc(Cl)cc3)sc1C)=C2O (stereo not shown) [Example I-2-A-a-1] | good activity | 100% | 95% | good activity | 100% | 80% | 70% | nematicidal action (formation of galls) (Meloidogyne incognita): good activity; % damage Matricaria (Matricaria): 100%; % damage Lolium (Lolium; 125 g ai/ha): 100%; % damage sugar beet (sugar beet [9]; 125 g ai/ha): 0%; % damage oilseed rape (oilseed rape [10]; 125 g ai/ha): 0%; % damage Setaria (Setaria [11]; 125 g ai/ha): 100%; % damage Alopecurus (Alopecurus [12]): 90%; % damage Avena fatua (Avena fatua [13]; 125 g ai/ha): 100%; % damage oilseed rape (oilseed rape [14]): 20%; % damage Chenopodium (Chenopodium): 70%; kill of aphids [7]: good activity |
| Cc1sc(-c2ccc(Cl)cc2)nc1C1=C(O)C(C)(C)OC1=O [Example I-2-A-a-2] | good activity | 100% | 90% |  | 95% |  |  | nematicidal action (formation of galls) (Meloidogyne incognita): good activity; effect on spider mites [3]: good activity; % damage Bromus (Bromus): 90%; % damage Lolium (Lolium; 250 g ai/ha): 100%; % damage sugar beet (sugar beet [9]; 250 g ai/ha): 0%; % damage oilseed rape (oilseed rape [10]; 250 g ai/ha): 0%; % damage Setaria (Setaria [11]; 250 g ai/ha): 100%; % damage Avena fatua (Avena fatua [13]; 250 g ai/ha): 90%; % damage sugar beet (sugar beet [8]; 250 g ai/ha): 0%; % damage Soya bean (Soya bean): 0%; % damage Digitaria (Digitaria; 250 g ai/ha): 90% |
| Cc1oc(-c2ccccc2)nc1C1=C(O)C(C)(C)OC1=O [Example I-2-B-a-2] |  |  |  |  |  |  |  | logP (pH2) [15]: 3.43 |
| CCOC(=O)C1(OC(=O)Cc2nc(-c3ccc(Cl)cc3)sc2C)CCC(OC)CC1 (stereo not shown) [III-A-1] |  |  |  |  |  |  |  | chromatographic logP ([15]; acidic, HPLC, acetonitrile): 4.54 |
| CCOC(=O)C(C)(C)OC(=O)Cc1nc(-c2ccc(Cl)cc2)sc1C [III-A-2] |  |  |  |  |  |  |  | logP (pH2) [15]: 4.53 |
